Results taken from article PMC9440883, “A new source of bacterial myrosinase isolated from endophytic Bacillus sp. NGB-B10, and its relevance in biological control activity” (World Journal of Microbiology & Biotechnology, 2022).

System: myrosinase (bglA, 6-phospho-β-glucosidase, GH1)
Experiment: initial rates, Lineweaver-Burk plot
Type: biochemical, Bacillus sp. NGB-B10
Details: 0.05 M phosphate buffer pH 7.0; 1-20 mM sinigrin; partially purified enzyme

With `C=CC/C(=N/OS(=O)(=O)O)S[C@@H]1O[C@H](CO)[C@@H](O)[C@H](O)[C@H]1O` [sinigrin] the Km was 2500 µM.
